From US20170209402A1, “CARBOXY-CYCLOPROPYL UNDECANOL COMPOUNDS FOR TREATMENT OF LIVER DISEASE AND OTHER MEDICAL DISORDERS” (Esperion Therapeutics, Inc., priority 2014, published 2017)

Test system: C57BL/6N male mice fed high-fat diet
Assay: Hepatic triglyceride levels in C57BL/6N male mice receiving a high-fat diet
Type: in vivo
Conditions: 3 weeks HFD, compound as diet admix 289 mg/kg HFD (~30 mg/kg/day) for final 2 weeks, 4-hour fast, group mean, HFD alone 1.6, NC 0.6
Protocol: An assay was performed to determine the effect of administering Compounds A and B to C57BL/6N male mice receiving a high-fat diet.
C57BL/6N male mice were obtained from Charles River Laboratories (Montreal, QC, Canada) at 11 weeks of age and singly housed on alpha-dri paper bedding on a normal 12 hour, 6 am-6 pm light-dark cycle. Upon arrival, 27 mice were fed D12492 high fat diets (HFD) containing 60% kcal fat while 9 mice were fed D12450K normal chow diet (NC) for 1 week with free access to water. Mice that had been fed D12492 were allocated into three equally distributed treatment arms of 9 mice each at 12 weeks of age based on 4-hour fasted blood glucose and body weight. […]
Following a 4-hour fast, mice were euthanized and a random lobe of liver was flash frozen in liquid nitrogen for subsequent hepatic lipid analysis. […] A 10 μL aliquot of the prepared sample was injected into the HPLC-ELSD system utilizing a Spherisorb® S5W Silica gel 5 μm, 100×4.6 mm ID HPLC column (Waters) running a 99:1 isooctane:tetrahydrofuran (mobile phase A), 2:1 acetone:CH2Cl2 (mobile phase B), 85:15 isopropanol:7.5 mM acetic acid/7.5 mM ethanolamine (mobile phase C) gradient before being detected using evaporative light scattering detection (ELSD) on an SEDEX® 75 detector (Sedere, Inc., Lawrenceville, N.J.). […]

SMILES	Hepatic TG [% w/w]
O=C(O)C1(CCCCCC(O)CCCCCC2(C(=O)O)CC2)CC1 [Compound A, 1,11-bis-(1-carboxy-cyclopropyl)-undecan-6-ol]	0.6
CC(C)(CCCCCC(O)CCCCCC(C)(C)C(=O)O)C(=O)O [Compound B]	1.1
